Assay results from US10201516B2 (The Regents of the University of California, priority 2014, dated 2019).

How the values were obtained:
[1] = system: β-catenin/TCF/LEF transcriptional activity; test: TOPFlash assay in NIH/3T3 cells; type: cell-based, mouse; details: for β-catenin/TCF/LEF transcriptional activity (TOPFlash): Ras^V12-transformed NIH/3T3 cells, 0.5 μM for 12 hours (FIG. 10E)
Method: (§1) Tankyrase inhibitors, JW55, Cardinogenl, and JW67, were purchased from R&D Systems. The cells were treated with the inhibitors at 0.5 μM for 12 hours for TOPFlash assays. For sphere formation assays, the cells were cultured in complete medium with different Tankyrase inhibitors.
Cells were transfected with TOPFlash (Addgene#12456), FOPFlash (Addgene#12457) or pGL3-NFAT (Addgene#17870) luciferase reporter constructs by using Fugene6 (Roche). 48th hour post-transfection the luciferase activities in cell lysates were measured using Bright-Glo Luciferase Assay System (Promega) according to the manufacturer's instructions.

NIH/3T3 cells = test: Sphere formation assay in NIH/3T3 cells; type: cell-based, mouse; details: for sphere forming efficiency: K-Ras^V12 transformed NIH/3T3 cells (FIG. 10F); for sphere formation: vector control or H-Ras^V12 transformed NIH/3T3 (FIG. 10F)
Method: as §1
Cells were harvested, counted and seeded into Ultra Low Attachment Culture 96-well plate (Corning Life Science, Catalog number 3261) at 10 or 100 cells per well. The seeded cells and formed spheres were maintained in low serum containing medium with 0.1% FBS or CS. The initiated spheres were observed twice and week. The numbers of formed spheres were counted one month after seeding. The spheres were harvested and re-seeded into 12-well or 24-well plate with complete growth medium at one sphere per well. The re-plated colonies were stained and visualized by 0.05% crystal violet staining (in […]).

CaMKii = test: Western blot of phospho-CaMKii in Ras-transformed NIH/3T3 cells (and human pancreatic cancer cell lines); type: cell-based, mouse; details: NIH/3T3-H-Ras^V12 and vector control cells (FIG. 3B)
Method: (§2) Experimental cells were washed twice in ice-cold PBS and lysed in 1% Triton lysis buffer [25 mmol/L Tris pH 7.5, 150 mmol/L NaCl, 1% Triton X-100, 1 mmol/L EDTA, 1 mmol/L EGTA, 20 mmol/L NaF, 1 mmol/L […], and 1 mmol/L DTT] supplemented with a protease inhibitor cocktail (Roche) and cleared by centrifugation. Protein concentrations were determined by the Bio-Rad Protein Assay (Bio-Rad). Equal amounts of protein extracts were resolved using SDS-PAGE (NuPAGE; Invitrogen), transferred to a nitrocellulose membrane, and immunoblotted with primary antibodies indicated, followed by secondary antibodies labeled with either IRDye800 (Rockland) or Alexa Fluor 680 (Molecular Probes) and were visualized using a LI-COR Odyssey scanner. A complete list of primary antibodies is provided in the Extended Experimental Procedures.

Fzd8 = test: Western blot of Fzd8 expression in NIH/3T3 cells; type: cell-based, mouse; details: NIH/3T3-H-Ras^V12 cells (FIG. 3B)
Method: as §2

[2] = PKC activators, literature; cited from earlier work

SMILES | β-catenin/TCF/LEF transcriptional activity (TOPFlash) [1] | sphere forming efficiency (NIH/3T3 cells) | sphere formation (NIH/3T3 cells) | phosphorylation of CaMKii (CaMKii) | β-catenin transcriptional activity ([1]; NIH/3T3-H-Ras^V12 cells (FIG. 3C)) | sphere forming efficiency and size of spheroid colonies (NIH/3T3 cells; NIH/3T3-H-Ras^V12 cells (FIG. 3D)) | Fzd8 expression (Fzd8) | tumor promotion [2]
COc1ccc(C2(CNC(=O)c3ccc(NC(=O)c4ccco4)cc3)CCOCC2)cc1 [JW55] | successfully repressed β-catenin/TCF/LEF transcriptional activity | still maintained their sphere forming efficiency | inhibited sphere formation |  |  |  |  | 
O=C1Nc2ccccc2C12OCC1(CO2)COC2(OC1)C(=O)Nc1ccccc12 (centres unmarked) [JW67] | successfully repressed β-catenin/TCF/LEF transcriptional activity | still maintained their sphere forming efficiency | inhibited sphere formation |  |  |  |  | 
COc1ccc(S(=O)(=O)N(CCO)c2ccccc2CN(C)C/C=C/c2ccc(Cl)cc2)cc1 [KN-93] |  |  |  | reduced phosphorylation of CaMKii | increased β-catenin transcriptional activity | dramatically enhanced the sphere forming efficiency and the size of spheroid colonies | reduced Fzd8 expression | 
CCCCCCCCCCCCCC(=O)O[C@@H]1[C@@H](C)[C@@]2(O)[C@@H](C=C(CO)C[C@]3(O)C(=O)C(C)=C[C@@H]23)[C@@H]2C(C)(C)[C@]12OC(C)=O [PMA, phorbol-12-myristate-13-acetate, reference compound] |  |  |  |  |  |  |  | tumor promoting
c1coc(-c2nnc3sc(C4CCCCC4)nn23)c1 [cardionogen1] | successfully repressed β-catenin/TCF/LEF transcriptional activity | still maintained their sphere forming efficiency | inhibited sphere formation |  |  |  |  | 
